These results are taken from patent EP0029990A1, “Biphenylmethane derivative, methods for its production and pharmaceutical compositions containing it” (Byk Gulden Lomberg Chemische Fabrik GmbH, priority 1979, dated 1981).

Data set [1] is described as follows: Acute toxicity (LD50), intravenous administration, rat. Particulars: in vivo. From the text:
(§1) Ihre Toxizität ist geringer als die des aus einem Gemisch von Kondensationsprodukten aus m-Kresolsulfonsäuren und Formaldehyd bestehenden Handelsprodukts. In der nachstehenden Tabelle sind die bei intravenöser Verabreichung an Maus und Ratte ermittelten LDSo-Werte des Dinatriumsalzes der 2,2'-Dihydroxy-5,5'-methylendi-(p-toluolsulfonsäure) (A) und des mit Natriumhydroxid neutralisierten Handelsprodukts (B) aufgeführt.

A short description of data set [2]: Acute toxicity (LD50), intravenous administration, mouse. The following applies: in vivo.
Description: as §1

Molecules are shown by their SMILES.

Consider `Cc1cc(O)c(S(=O)(=O)O)cc1Cc1cc(S(=O)(=O)O)c(O)cc1C` [A, Dinatrium-2,2'-dihydroxy-5,5'-methylendi-(p-toluolsulfonat)-monohydrat], for which the 50% lethal dose (LD50) (commonly the dose at which mortality reaches 50%) in data set [1] (Ratte ♀) came out at 990 mg/kg; in data set [1] (Ratte ♂), 930 mg/kg; in data set [2] (Maus ♀) it was 1050 mg/kg; in data set [2] (Maus ♂), 1100 mg/kg.
